± gives the standard deviation of the averaged measurements.
Columns and labels:
Settings in all cases: treatment time: 3 days
[1] = system: UT-SCC-44; experiment: relative IC50 (midpoint of the fitted curve; maximal inhibition may be below 50%); higher = less potent
How it was run: (§1)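 HPV-negative HNSCC cell lines were plated at 500 cells/well in 384-well plates, either on plastic, on wells coated with Matrigel or Myogel (500 µg/mL), or embedded in Matrigel or Myogel plus rat collagen I. Each compound was tested at five 10-fold concentrations over 3 days. Viability was measured by CellTiter-Glo 2.0 luminescence, and IC50, maximal inhibition and drug sensitivity score came from percent-inhibition dose–response curves fitted in the FIMM pipeline after normalisation to vehicle (0.1% DMSO) and cell-killing control wells.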

[2] = system: UT-SCC-14; experiment: as above
How it was run: as §1

[3] = system: UT-SCC-73; experiment: as above
How it was run: as §1

[4] = system: UT-SCC-42B; experiment: as above
How it was run: as §1

[5] = system: UT-SCC-81; experiment: as above
How it was run: as §1

[6] = system: UT-SCC-42A; experiment: as above
How it was run: as §1

[7] = system: UT-SCC-44; experiment: drug sensitivity score (DSS); higher = more sensitive; extreme values may be limits of the assay
How it was run: as §1

[8] = system: UT-SCC-106A; experiment: as above
How it was run: as §1

[9] = system: UT-SCC-14; experiment: as above
How it was run: as §1

[10] = system: UT-SCC-73; experiment: as above
How it was run: as §1

[11] = system: UT-SCC-28; experiment: as above
How it was run: as §1

[12] = system: UT-SCC-40; experiment: as above
How it was run: as §1

[13] = system: UT-SCC-42B; experiment: as above
How it was run: as §1

[14] = system: UT-SCC-24B; experiment: as above
How it was run: as §1

[15] = system: UT-SCC-8; experiment: as above
How it was run: as §1

[16] = system: UT-SCC-81; experiment: as above
How it was run: as §1

[17] = system: UT-SCC-42A; experiment: as above
How it was run: as §1

[18] = system: UT-SCC-24A; experiment: relative IC50 (midpoint of the fitted curve; maximal inhibition may be below 50%); higher = less potent
Experimental: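 HNSCC cell lines (500 cells/well, 384-well) were cultured on plastic, on top of (2D) or embedded (3D) in Matrigel or human leiomyoma matrix Myogel (500 ug/mL; Myogel 3D mixed with rat collagen I). Cells were treated for 3 days with 5 ten-fold concentrations of each drug, and viability was read by CellTiter-Glo. Viability was normalised to DMSO (0% inhibition) and 100 uM benzethonium chloride (100% inhibition) controls and fitted with the FIMM DSRT pipeline to give IC50 (nM), maximal % inhibition and the drug sensitivity score (DSS). Suffixes _1/_2/_3 on drug names are replicates.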

[19] = culture condition: embedded in Matrigel
[20] = culture condition: embedded in Myogel + collagen I
[21] = culture condition: on top of Matrigel
[22] = culture condition: on top of Myogel
[23] = culture condition: plastic 2D (no matrix)

COc1cc(F)c(F)c(Nc2ccc(I)cc2F)c1NS(=O)(=O)C1(C[C@H](O)CO)CC1 [Refametinib]
relative IC50 [1, 19]: 56.2 nM | relative IC50 [1, 20]: 417 nM | relative IC50 [1, 21]: 58.4 nM | relative IC50 [1, 22]: 569 nM | relative IC50 [1, 23]: 61.7 nM | relative IC50 [2, 20]: 238 nM | relative IC50 [2, 21]: 146 nM | relative IC50 [2, 22]: 299 nM | relative IC50 [3, 19]: 38.5 nM | relative IC50 [3, 21]: 31.8 nM | relative IC50 [3, 22]: 132 nM | relative IC50 [3, 23]: 64.4 nM | relative IC50 [4, 19]: 16.6 nM | relative IC50 [4, 21]: 79.5 nM | relative IC50 [4, 22]: 757 nM | relative IC50 [4, 23]: 218 nM | relative IC50 [5, 19]: 14.2 nM | relative IC50 [5, 20]: 924 nM | relative IC50 [5, 21]: 61.6 nM | relative IC50 [5, 23]: 850 nM | relative IC50 [6, 19]: 36.3 nM | relative IC50 [6, 20]: 94.1 nM | relative IC50 [6, 21]: 20.8 nM | relative IC50 [6, 23]: 41.5 nM | drug sensitivity score [7, 19]: 23.7 ± 1.5 DSS | drug sensitivity score [7, 20]: 8.1 ± 2.3 DSS | drug sensitivity score [7, 21]: 18.2 ± 2.5 DSS | drug sensitivity score [7, 22]: 7.4 ± 1.2 DSS | drug sensitivity score [7, 23]: 15.3 ± 0.64 DSS | drug sensitivity score [8, 19]: 17.8 ± 1.8 DSS | drug sensitivity score [8, 20]: 3.97 ± 0.67 DSS | drug sensitivity score [8, 21]: 21.6 ± 1.2 DSS | drug sensitivity score [8, 22]: 5.3 ± 0.82 DSS | drug sensitivity score [8, 23]: 20.4 ± 0.42 DSS | drug sensitivity score [9, 19]: 13.5 ± 4.8 DSS | drug sensitivity score [9, 20]: 9.87 ± 1.7 DSS | drug sensitivity score [9, 21]: 10.9 ± 3.1 DSS | drug sensitivity score [9, 22]: 8.53 ± 0.47 DSS | drug sensitivity score [9, 23]: 5.8 ± 2.8 DSS | drug sensitivity score [10, 19]: 25 ± 1.3 DSS | drug sensitivity score [10, 20]: 16 ± 3.4 DSS | drug sensitivity score [10, 21]: 24 ± 0.8 DSS | drug sensitivity score [10, 22]: 15.1 ± 1.1 DSS | drug sensitivity score [10, 23]: 20 ± 1.4 DSS | drug sensitivity score [11, 19]: 9.8 ± 1.8 DSS | drug sensitivity score [11, 20]: 4.67 ± 4.2 DSS | drug sensitivity score [11, 21]: 13.2 ± 2.8 DSS | drug sensitivity score [11, 23]: 4.4 ± 2.4 DSS | drug sensitivity score [12, 19]: 26.9 ± 1.2 DSS | drug sensitivity score [12, 20]: 16.8 ± 2 DSS | drug sensitivity score [12, 21]: 22.5 ± 1.8 DSS | drug sensitivity score [12, 22]: 14.3 ± 1.1 DSS | drug sensitivity score [12, 23]: 14.1 ± 1.1 DSS | drug sensitivity score [13, 19]: 25.5 ± 1.9 DSS | drug sensitivity score [13, 21]: 15.7 ± 1.7 DSS | drug sensitivity score [13, 22]: 5.27 ± 0.5 DSS | drug sensitivity score [13, 23]: 8.27 ± 1.1 DSS | drug sensitivity score [14, 19]: 12.4 ± 0.7 DSS | drug sensitivity score [14, 20]: 10.4 ± 1.8 DSS | drug sensitivity score [14, 21]: 11.8 ± 0.98 DSS | drug sensitivity score [14, 22]: 6.87 ± 1 DSS | drug sensitivity score [14, 23]: 16.4 ± 2.1 DSS | drug sensitivity score [15, 19]: 15.7 ± 1.7 DSS | drug sensitivity score [15, 20]: 6.63 ± 3.1 DSS | drug sensitivity score [15, 21]: 12.5 ± 1.5 DSS | drug sensitivity score [15, 22]: 10.3 ± 2 DSS | drug sensitivity score [15, 23]: 10.9 ± 2.8 DSS | drug sensitivity score [16, 19]: 29.8 ± 2 DSS | drug sensitivity score [16, 20]: 5.87 ± 0.35 DSS | drug sensitivity score [16, 21]: 21.1 ± 1.4 DSS | drug sensitivity score [16, 22]: 5.53 ± 1.2 DSS | drug sensitivity score [16, 23]: 8.8 ± 0.96 DSS | drug sensitivity score [17, 19]: 18 ± 1.1 DSS | drug sensitivity score [17, 20]: 8.7 ± 1.7 DSS | drug sensitivity score [17, 21]: 19.2 ± 0.8 DSS | drug sensitivity score [17, 22]: 11.5 ± 1.4 DSS | drug sensitivity score [17, 23]: 15.3 ± 0.1 DSS | relative IC50 [18, 19]: 3.14 nM | relative IC50 [18, 21]: 8.76 nM | relative IC50 [18, 23]: 9.97 nM

Reference: the supplement of paper PMC7017272
